Data: the supplement of paper PMC11208160

experiment: recombinant UMI read abundance after kanamycin selection (control-corrected) (log10(CPM+1)); higher = more efficient recombination; extreme values may be limits of the assay; sequences stand for … in AGTGCAGAGAAAATCGGCCAGTTTTCTCTGCCTGCAGTCCGCATGCCGTGGGACCCCTTGGGTTCTAACCTGTTGCCTAGATTTATGCAGCGGACTGCCTTTCTCCCAAAGTGATAAACCGG…AGGTTGGTTTCACT; site = the 11-nt donor
How it was run: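 After plating on IPTG (0.07 mM) plus kanamycin, or unselected, in two replicates, recombinant UMIs were PCR-amplified across the donor–target junction and sequenced. The cells were Escherichia coli co-electroporated with a UMI-tagged donor and donor-binding-loop pair library and a target plasmid with a fixed target and T7-inducible IS621 bridge recombinase. Values are log10(CPM+1), with CPM averaged over replicates and scaled by control-derived factors.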

Row | Sequence | recombinant UMI read abundance (log10)
1 | GTAGGTACATGGACCGGTTTTCCCGGTAATCCGTATTTGAA (site GTAGGTACTTT) | 1.75
2 | GTAGGTACATGGACCGGTTTTCCCGGTAATCCGTATTTGCC (site GTAGGTACTGA) | 0.73
3 | GTAGGTACATGGACCGGTTTTCCCGGTAATCCGTATTTGCC (site GTAGGTACTGC) | 0.00606
4 | GTAGGTACATGGACCGGTTTTCCCGGTAATCCGTATTTGCC (site GTAGGTACTGG) | 0.956
5 | GTAGGTACATGGACCGGTTTTCCCGGTAATCCGTATTTGCC (site GTAGGTACTGT) | 0.441
6 | GTAGGTGCATGGACCGGTTTTCCCGGTAATCCGTATTTGAC (site GTAGGTACTGT) | 2.25
7 | GTAGGTGCATGGACCGGTTTTCCCGGTAATCCGTATTTGAC (site GTAGGTCCTGT) | 0.618
8 | GTAGGTGCATGGACCGGTTTTCCCGGTAATCCGTATTTGAC (site GTAGGTGCTGT) | 2.74
9 | GTAGGTGCATGGACCGGTTTTCCCGGTAATCCGTATTTGAC (site GTAGGTTCTGT) | 1.1
10 | GTAGTCGCATGGACCGGTTTTCCCGGTAATCCGTATTTGAG (site GTAGTCGCTCA) | 0.017
11 | GTAGTCGCATGGACCGGTTTTCCCGGTAATCCGTATTTGAG (site GTAGTCGCTCC) | 0.924
12 | GTAGTCGCATGGACCGGTTTTCCCGGTAATCCGTATTTGAG (site GTAGTCGCTCG) | 0.73
13 | GTAGTCGCATGGACCGGTTTTCCCGGTAATCCGTATTTGAG (site GTAGTCGCTCT) | 1.5
14 | GTAGTCGCATGGACCGGTTTTCCCGGTAATCCGTATTTGCA (site GTAGTCGCTAG) | 0.762
15 | GTAGTCGCATGGACCGGTTTTCCCGGTAATCCGTATTTGCA (site GTAGTCGCTCG) | 1.85
16 | GTAGTCGCATGGACCGGTTTTCCCGGTAATCCGTATTTGCA (site GTAGTCGCTGG) | 0.873
17 | GTAGTCGCATGGACCGGTTTTCCCGGTAATCCGTATTTGCA (site GTAGTCGCTTG) | 2.68
18 | GTAGTCGCATGGACCGGTTTTCCCGGTAATCCGTATTTGCC (site GTAGTCGCTAG) | 1.64
19 | GTAGTCGCATGGACCGGTTTTCCCGGTAATCCGTATTTGCC (site GTAGTCGCTCG) | 0.819
20 | GTAGTCGCATGGACCGGTTTTCCCGGTAATCCGTATTTGCC (site GTAGTCGCTGG) | 2.93
21 | GTAGTCGCATGGACCGGTTTTCCCGGTAATCCGTATTTGCC (site GTAGTCGCTTG) | 2.39
22 | GTAGTCGCATGGACCGGTTTTCCCGGTAATCCGTATTTGTG (site GTAGTCGCTCA) | 2.18
23 | GTAGTCGCATGGACCGGTTTTCCCGGTAATCCGTATTTGTG (site GTAGTCGCTCC) | 0.438
24 | GTAGTCGCATGGACCGGTTTTCCCGGTAATCCGTATTTGTG (site GTAGTCGCTCG) | 1.42
25 | GTAGTCGCATGGACCGGTTTTCCCGGTAATCCGTATTTGTG (site GTAGTCGCTCT) | 1.05

Row | Sequence | recombinant UMI read abundance (log10)
26 | GTAGTCTCATGGACCGGTTTTCCCGGTAATCCGTATTTGCG (site GTAGTCACTCG) | 1.31
27 | GTAGTCTCATGGACCGGTTTTCCCGGTAATCCGTATTTGCG (site GTAGTCCCTCG) | 1.12
28 | GTAGTCTCATGGACCGGTTTTCCCGGTAATCCGTATTTGCG (site GTAGTCGCTCG) | 0.176
29 | GTAGTCTCATGGACCGGTTTTCCCGGTAATCCGTATTTGCG (site GTAGTCTCTCG) | 3
30 | GTAGTTGCATGGACCGGTTTTCCCGGTAATCCGTATTTGCG (site GTAGTAGCTCG) | 2.05
31 | GTAGTTGCATGGACCGGTTTTCCCGGTAATCCGTATTTGCG (site GTAGTCGCTCG) | 1.78
32 | GTAGTTGCATGGACCGGTTTTCCCGGTAATCCGTATTTGCG (site GTAGTGGCTCG) | 0.373
33 | GTAGTTGCATGGACCGGTTTTCCCGGTAATCCGTATTTGCG (site GTAGTTGCTCG) | 2.88
34 | GTATACACATGGACCGGTTTTCCCGGTAATCCGTATTTGTA (site GTATACACTTA) | 2.12
35 | GTATACACATGGACCGGTTTTCCCGGTAATCCGTATTTGTA (site GTATCCACTTA) | 0
36 | GTATACACATGGACCGGTTTTCCCGGTAATCCGTATTTGTA (site GTATGCACTTA) | 0.0117
37 | GTATACACATGGACCGGTTTTCCCGGTAATCCGTATTTGTA (site GTATTCACTTA) | 0.0042
38 | GTATAGACATGGACCGGTTTTCCCGGTAATCCGTATTTGCC (site GAATAGACTGG) | 2.37
39 | GTATAGACATGGACCGGTTTTCCCGGTAATCCGTATTTGCC (site GCATAGACTGG) | 2.19
40 | GTATAGACATGGACCGGTTTTCCCGGTAATCCGTATTTGCC (site GGATAGACTGG) | 0.251
41 | GTATAGACATGGACCGGTTTTCCCGGTAATCCGTATTTGCC (site GTATAGACTGG) | 2.83
42 | GTATATCCATGGACCGGTTTTCCCGGTAATCCGTATTTGGT (site GTATATCCTAC) | 1.08
43 | GTATCAACATGGACCGGTTTTCCCGGTAATCCGTATTTGAA (site GTATCAACTTT) | 1.01
44 | GTATCCACATGGACCGGTTTTCCCGGTAATCCGTATTTGTA (site GTATACACTTA) | 0.926
45 | GTATCCACATGGACCGGTTTTCCCGGTAATCCGTATTTGTA (site GTATCCACTTA) | 1.94
46 | GTATCCACATGGACCGGTTTTCCCGGTAATCCGTATTTGTA (site GTATGCACTTA) | 0.019
47 | GTATCCACATGGACCGGTTTTCCCGGTAATCCGTATTTGTA (site GTATTCACTTA) | 0.00595
48 | GTATGAACATGGACCGGTTTTCCCGGTAATCCGTATTTGTA (site GTATGAACTTA) | 2.42
49 | GTATGAACATGGACCGGTTTTCCCGGTAATCCGTATTTGTA (site GTATGCACTTA) | 0.00699
50 | GTATGAACATGGACCGGTTTTCCCGGTAATCCGTATTTGTA (site GTATGGACTTA) | 0.255

Row | Sequence | recombinant UMI read abundance (log10)
51 | GTATGAACATGGACCGGTTTTCCCGGTAATCCGTATTTGTA (site GTATGTACTTA) | 0
52 | GTATGATCATGGACCGGTTTTCCCGGTAATCCGTATTTGGG (site GTATGATCTCC) | 0.738
53 | GTATGCACATGGACCGGTTTTCCCGGTAATCCGTATTTGTG (site GTATGCACTAA) | 0.198
54 | GTATGCACATGGACCGGTTTTCCCGGTAATCCGTATTTGTG (site GTATGCACTCA) | 1.34
55 | GTATGCACATGGACCGGTTTTCCCGGTAATCCGTATTTGTG (site GTATGCACTGA) | 0.881
56 | GTATGCACATGGACCGGTTTTCCCGGTAATCCGTATTTGTG (site GTATGCACTTA) | 1.29
57 | GTATGCCCATGGACCGGTTTTCCCGGTAATCCGTATTTGTA (site GTATGCACTTA) | 0.0189
58 | GTATGCCCATGGACCGGTTTTCCCGGTAATCCGTATTTGTA (site GTATGCCCTTA) | 0.172
59 | GTATGCCCATGGACCGGTTTTCCCGGTAATCCGTATTTGTA (site GTATGCGCTTA) | 0.0563
60 | GTATGCCCATGGACCGGTTTTCCCGGTAATCCGTATTTGTA (site GTATGCTCTTA) | 1.76
61 | GTATGCTCATGGACCGGTTTTCCCGGTAATCCGTATTTGTA (site GTATGCACTTA) | 0.29
62 | GTATGCTCATGGACCGGTTTTCCCGGTAATCCGTATTTGTA (site GTATGCCCTTA) | 1.2
63 | GTATGCTCATGGACCGGTTTTCCCGGTAATCCGTATTTGTA (site GTATGCGCTTA) | 0.0181
64 | GTATGCTCATGGACCGGTTTTCCCGGTAATCCGTATTTGTA (site GTATGCTCTTA) | 2.99
65 | GTATTCGCATGGACCGGTTTTCCCGGTAATCCGTATTTGCG (site GTAATCGCTCG) | 0.015
66 | GTATTCGCATGGACCGGTTTTCCCGGTAATCCGTATTTGCG (site GTACTCGCTCG) | 0.406
67 | GTATTCGCATGGACCGGTTTTCCCGGTAATCCGTATTTGCG (site GTAGTCGCTCG) | 0.00852
68 | GTATTCGCATGGACCGGTTTTCCCGGTAATCCGTATTTGCG (site GTATTCGCTCG) | 0.984
69 | GTCAATCCATGGACCGGTTTTCCCGGTAATCCGTATTTGAA (site GACAATCCTTT) | 0
70 | GTCAATCCATGGACCGGTTTTCCCGGTAATCCGTATTTGAA (site GCCAATCCTTT) | 0.306
71 | GTCAATCCATGGACCGGTTTTCCCGGTAATCCGTATTTGAA (site GGCAATCCTTT) | 0.51
72 | GTCAATCCATGGACCGGTTTTCCCGGTAATCCGTATTTGAA (site GTCAATCCTTT) | 1.07
73 | GTCACCCCATGGACCGGTTTTCCCGGTAATCCGTATTTGGT (site GTCACCCCTAC) | 0.425
74 | GTCACGACATGGACCGGTTTTCCCGGTAATCCGTATTTGAT (site GTCACGACTAT) | 1.77
75 | GTCACGACATGGACCGGTTTTCCCGGTAATCCGTATTTGGC (site GTCACGACTGC) | 1.65
